Reference: patent publication US8252832B2, “Kinesin inhibitors as cancer therapeutics” (Novartis AG, priority 2007, dated 2012)
Like-named read-outs stand apart in the source and are kept apart here.

Assays:
Assay in all cases: CellTiter-Glo, NCI60 panel
Assay type in all cases: cell-based
[1] = system: UO-31; details: Renal; for GI50: Homo sapiens
Description: (§1) Identification of tumor types that are the most sensitive to the KSP inhibitors of the present invention can be accomplished using an unbiased approach that uses several cell-based assays. The assays chosen were as follows: • CellTiter-Glo®. This is an assay designed to measure ATP concentration in a cell culture, and can be correlated to cell number. Briefly CellTiter-Glo® (Promega Corporation) is a homogeneous method using the single CellTiter-Glo® reagent to detect ATP wherein ATP in the assay drives the activity of a thermostable luciferase to create a luminescent signal which can then be measured and correlated with the number of viable cells. Briefly, for adherent cells, 1,000 to 5,000 cells/well were plated in 96-well plates (100 μl/well) and let to adhere for 24 hours before being treated with drug. For non-adherent cells, 1,000 to 10,000 cells/well were plated in 96-well plates (100 μl/well) and immediately treated with drug. Drug dilutions were prepared in DMSO at 1000 times the final concentration. These dilutions were then diluted 1/100 in growth media before being added to the cells (11 μl/well) to achieve the desired final concentration. After 48 h in a 37° C. tissue culture incubator, the plates were processed for the CellTiter-Glo®assay according to the manufacturer's instructions. Protocol for a 72 hour cell proliferation assay: The 72 hour assay was performed the same way as the 48 hour assay except for the following modifications: For adherent cells, 500 to 5,000 cells/well were plated in 96-well plates (90 μl/well cell growth media) and left to adhere for 24 hours before being treated with drug. For non-adherent cells, 1,000 to 10,000 cells/well were plated in 96-well plates (90 μl/well cell growth media) and immediately treated with drug. Data values presented represent the concentration of test compound required for a 50% reduction in growth. • LDH release. The Cytotoxicity Detection KitPLUS (LDH) assay (Roche Diagnostics, Manheim, Germany) measures the amount of LDH released in the media by dying cells; LDH catalyzes the conversion of lactate into pyruvate. The enzymatic reaction is coupled to a chemical reaction that uses a tetrazolium salt to form a formazan that is red and can be detected by its absorbance at 490 nm. This assay measures the amount of cell death after drug treatment. Cells were plated at 10,000 cells/well in 96-well plates (100 μl/well). Adherent cells were let to adhere for 24 hours before being treated with drug, whereas non-adherent cells were immediately treated with drug. Drug dilutions were prepared in DMSO at 1000 times the final concentration. These dilutions were then diluted 1/100 in growth media before being added to the cells (11 μl/well) to achieve the desired final concentration. After 48 h in a 37° C. tissue culture incubator, the plates were processed for the Cytotoxicity Detection KitPLUS (LDH) assay according to the manufacturer's instructions. The media only values were subtracted from all the data points before analysis. Data values presented correspond to the compound concentration wherein LDH output is at half maximal level. • Caspase-Glo® 3/7. The Caspase-Glo® 3/7 Assay (Promega Corporation) is a homogeneous luminescent assay that measures caspase-3/7 activities. The assay provides a proluminescent caspase-3/7 DEVD-aminoluciferin substrate and a thermostable luciferase in a reagent optimized for caspase-3/7 activity, luciferase activity and cell lysis. Adding the single Caspase-Glo® 3/7 Reagent results in cell lysis, followed by caspase cleavage of the substrate. This liberates free aminoluciferin, which is consumed by the luciferase, generating a luminescent signal. The signal is proportional to caspase-3/7 activity. Data values presented correspond to the compound concentration wherein caspase 3/7 activity is at half maximal level. […]

[2] = system: UACC-62; details: Melanoma; for GI50: Homo sapiens
Description: as §1

[3] = system: MDA-MB-435; details: Melanoma; for GI50: Homo sapiens
Description: as §1

[4] = system: CCRF-CEM; details: Leukemia; for GI50: Homo sapiens
Description: as §1

[5] = system: TK-10; details: Renal; for GI50: Homo sapiens
Description: as §1

[6] = system: SK-MEL-28; details: Melanoma; for GI50: Homo sapiens
Description: as §1

[7] = system: SF-268; details: CNS; for GI50: Homo sapiens
Description: as §1

[8] = system: LOX IMVI; details: Melanoma; for GI50: Homo sapiens
Description: as §1

[9] = system: RXF 393; details: Renal; for GI50: Homo sapiens
Description: as §1

[10] = system: NCI-H226; details: NSCL; for GI50: Homo sapiens
Description: as §1

[11] = system: DU-145; details: Prostate; for GI50: Homo sapiens
Description: as §1

[12] = system: HOP-62; details: NSCL; for GI50: Homo sapiens
Description: as §1

[13] = system: U251; details: for GI50: Homo sapiens, U-251, CNS
Description: as §1

[14] = system: MALME-3M; details: Melanoma; for GI50: Homo sapiens
Description: as §1

[15] = system: MOLT-4; details: Leukemia; for GI50: Homo sapiens
Description: as §1

[16] = system: BT-549; details: Breast; for GI50: Homo sapiens
Description: as §1

[17] = GI50 in nM, read-out: Log(GI50) (converted)

With `CC(C)(C)[C@H](c1nc(-c2cc(F)ccc2F)cn1Cc1ccccc1)N(CC[C@H](N)CF)C(=O)CO` [Compound IIa] the GI50 [1, 17] was 10 nM, the GI50 ([1]; read-out: GI50) was 10 nM and the “Differential vs mean Log(GI50)” value [1] was −0.669. The GI50 [2, 17] was 10 nM, the GI50 ([2]; read-out: GI50) was 10 nM and the “Differential vs mean Log(GI50)” value [2] was −0.669. The GI50 [3, 17] was 0.152 nM, the GI50 ([3]; read-out: GI50) was 0.152 nM and the “Differential vs mean Log(GI50)” value [3] was 1.149. For the same compound, the GI50 [4, 17] was 0.215 nM, the GI50 ([4]; read-out: GI50) was 0.215 nM and the “Differential vs mean Log(GI50)” value [4] was 0.999. For the same compound, the GI50 [5, 17] was 10 nM, the GI50 ([5]; read-out: GI50) was 10 nM and the “Differential vs mean Log(GI50)” value [5] was −0.669. For the same compound, the GI50 [6, 17] was 10 nM, the GI50 ([6]; read-out: GI50) was 10 nM and the “Differential vs mean Log(GI50)” value [6] was −0.669. For the same compound, the “Differential vs mean Log(GI50)” value [7] was −0.669, the GI50 [7, 17] was 10 nM and the GI50 ([7]; read-out: GI50) was 10 nM. The GI50 [8, 17] was 10 nM, the GI50 ([8]; read-out: GI50) was 10 nM and the “Differential vs mean Log(GI50)” value [8] was −0.669. For the same compound, the GI50 [9, 17] was 10 nM, the GI50 ([9]; read-out: GI50) was 10 nM and the “Differential vs mean Log(GI50)” value [9] was −0.669. For the same compound, the GI50 [10, 17] was 10 nM, the GI50 ([10]; read-out: GI50) was 10 nM and the “Differential vs mean Log(GI50)” value [10] was −0.669. The GI50 [11, 17] was 0.435 nM, the GI50 ([11]; read-out: GI50) was 0.435 nM and the “Differential vs mean Log(GI50)” value [11] was 0.693. For the same compound, the GI50 [12, 17] was 10 nM, the GI50 ([12]; read-out: GI50) was 10 nM and the “Differential vs mean Log(GI50)” value [12] was −0.669. The “Differential vs mean Log(GI50)” value ([13]; CNS) was 0.953, the GI50 [13, 17] was 0.239 nM and the GI50 ([13]; read-out: GI50) was 0.239 nM. For the same compound, the GI50 [14, 17] was 10 nM, the GI50 ([14]; read-out: GI50) was 10 nM and the “Differential vs mean Log(GI50)” value [14] was −0.669. The GI50 [15, 17] was 0.331 nM, the GI50 ([15]; read-out: GI50) was 0.331 nM and the “Differential vs mean Log(GI50)” value [15] was 0.811. The “Differential vs mean Log(GI50)” value [16] was 0.423, the GI50 [16, 17] was 0.809 nM and the GI50 ([16]; read-out: GI50) was 0.809 nM.
